Values after ≈ are worked out from the molar mass of the structure shown.
Legend:
[1] = test system: members of the Enterobacterales order; assay: MIC, panel of 100 bacterial species: Enterobacterales; format: cell-based; conditions: apart from the named exceptions
Experimental: (§1) MIC tests were performed by broth microdilution in-line with CLSI susceptibility testing standards ([20], [21]) either in-house or at IHMA (Europe and USA) or JMI Laboratories using cation-adjusted Mueller Hinton Broth.

[2] = test system: Edwardsiella tarda; assay: MIC, panel of 100 bacterial species; format: cell-based
Experimental: as §1

[3] = test system: Haemophilus influenzae; assay: MIC, panel of 100 bacterial species; format: cell-based
Experimental: as §1

[4] = test system: Haemophilus parainfluenzae; assay: MIC, panel of 100 bacterial species; format: cell-based
Experimental: as §1

[5] = test system: Hafnia alvei; assay: MIC, panel of 100 bacterial species; format: cell-based
Experimental: as §1

[6] = test system: Morganella morganii; assay: MIC, panel of 100 bacterial species; format: cell-based
Experimental: as §1

[7] = test system: Proteus sp.; assay: MIC, panel of 100 bacterial species; format: cell-based
Experimental: as §1

[8] = test system: anaerobic gut commensals such as Actinomyces sp., Bacteroides sp., Clostridioides sp., Bifidobacterium sp., Peptostreptococcus sp., and Veillonella sp.; assay: MIC, panel of 100 bacterial species: anaerobic gut commensals; format: cell-based
Experimental: as §1

[9] = test system: K. pneumoniae NCTC 13438; assay: Time-kill experiment, K. pneumoniae; format: cell-based, Klebsiella pneumoniae; conditions: 2× and 4× the MIC
Experimental: An overnight culture of the test strain was diluted to a viable cell density of ~10^6 CFU/mL and dispensed into 96-well plates containing dilutions of SMT-738 to yield the specified multiple of the MIC. Plates were sealed with a breathable seal and incubated under shaking conditions in a humid incubator at 37°C. At specific timepoints (t = 0, 1, 2, 4, 6, 8, and 24 h), samples were taken and plated onto MH agar plates, and colonies enumerated after overnight growth at 37°C. Viable cell numbers as log10 (CFU/mL) were then plotted against time. Where no colonies were detected, the limit of detection was 100 CFU/mL. Compound activity was scored as bactericidal if the viable cell count decreased by at least 3 log10 from the initial count.

[10] = test system: UPEC (E. coli NCTC 13441); assay: Frequency of resistance determination, E. coli; format: cell-based, Escherichia coli; conditions: for FoR Range: experiments with colonies observed
Experimental: (§2) The FoR of bacterial strains to test compounds was determined by plating aliquots of overnight cultures onto MH-agar plates containing dilutions of the test compound at various multiples of reference MIC as previously determined. Total viable counts of the overnight cultures were determined by spotting 10–20 µL of decimal dilutions in 1× phosphate-buffered saline (PBS) onto non-selective agar. Assay plates were incubated for up to 48 h with colonies being enumerated every 24 h. FoR was determined by dividing the number of colonies observed by the total number of viable cells plated. Representative colonies were then picked and streaked onto selective agar to confirm resistance and obtain resistant isolates. Isolates growing on selective agar were then used to initiate overnight cultures, bacteria pelleted by centrifugation, supernatant removed, and pellets stored at −80°C for subsequent DNA extraction and whole-genome sequencing. Genomic DNA was extracted using the DNeasy Blood and Tissue Kit (Qiagen), quantified using the Quant-iT TM PicoGreen TM dsDNA Assay Kit (Thermo Fisher Scientific), and normalized to 0.2 ng/µL in nuclease-free water. Library preparation and barcode addition were with the Nextera XT DNA Library Prep Kit (Illumina). KAPA Pure beads (Roche) were used for DNA purification. Samples were pooled to achieve 100× coverage of each sample and run on an Illumina Nextseq 500/550 Mid Output Kit v2.5 (150 cycles) (Illumina).

[11] = test system: KPM (K. pneumoniae NCTC 13438); assay: Frequency of resistance determination, K. pneumoniae; format: cell-based, Klebsiella pneumoniae; conditions: for LoD Range: experiments with no colonies observed; for FoR Range: experiments with colonies observed
Experimental: as §2

[12] = test system: KPM (K. pneumoniae NCTC 13438) LolC and LolE mutants; assay: MIC fold change of resistant LolC/LolE mutants, KPM; format: cell-based, Klebsiella pneumoniae
Experimental: as §1, §2

[13] = test system: HEK293; assay: Cytotoxicity (CellTiter-Glo), HEK293; format: cell-based; conditions: HEK293, 24 h
Experimental: HepG2 (ATCC, HB-8065) and HEK293 (ATCC, CRL-1573) were sourced from ATCC. For the cytotoxicity assay, cells were seeded onto 96-well plates, which were then incubated for 24 h in a 5% CO2 incubator at 37°C. On the day of the assay, 10-point, twofold serial dilutions of test compound were prepared in assay media (MEM + 10% FBS) in separate 96-well plates. Assay plates were removed from the incubator, and the media from all of the wells were removed, taking care not to disturb the cell layer. Compound-containing assay media or control media were added to the relevant wells. Assay plates were returned to the 5% CO2 incubator at 37°C for 24 h. CellTiter-Glo reagent (Promega, G7570) was used to determine the viability of the cells.

[14] = test system: human lymphoblastoid TK6 cells; assay: GreenScreen genotoxicity assay; format: cell-based; conditions: top concentration of 500 µM (= 196.85 µg/mL)
Experimental: The standard GreenScreen genotoxcity assay was performed by Cyprotex, UK. The assay uses two strains of human lymphoblastoid TK6 cells, the test strain (GenM-[…]), and the non-fluorescent control strain (GenM-C01). Incorporated in the test strain is a patented green fluorescent protein (GFP) reporter system that exploits the proper regulation of the GADD45a gene, which mediates the adaptive response to genotoxic stress.

[15] = test system: HepG2 cells; assay: Seahorse mitochondrial functional assay; format: cell-based; conditions: top concentration of 500 µM (= 196.85 µg/mL)
Experimental: The Seahorse mitochondrial functional assay was performed by Cyprotex, UK. HepG2 cells were dosed with test compound, and in real time, the extracellular oxygen levels and pH were measured using the Xfe96 flux analyzer (Seahorse Biosciences). Simultaneously, oxygen consumption rate and extracellular acidification rate were measured to determine its effect on oxidative phosphorylation.

[16] = Protein binding, dog; format: in vitro ADME
[17] = single-step selection at 4× and 8× the MIC, after 24 and 48 h

**Q.** What does the source list for `Cc1cnccc1-c1[nH]c(N)nc1-c1ccc2c(c1)N(C(=O)C(C)(C)N)CCO2` [SMT-738]?
**A.** MIC [1]: 0.12 to 2 µg/mL; MIC [2]: 32 µg/mL (≈ 81.5 µM); MIC [3]: 1 µg/mL (≈ 2.55 µM); MIC [4]: 1 µg/mL (≈ 2.55 µM); MIC [5]: 32 µg/mL (≈ 81.5 µM); MIC [6]: > 64 µg/mL; MIC [7]: 8 to 32 µg/mL; MIC [8]: > 128 µg/mL; bacterial burden following 24-h exposure [9]: below the limit of detection; timepoint at which bactericidal activity was observed [9]: 4 h; FoR Range ([10]; 4× MICref, 48 h): 1.52E-09; FoR Range ([10]; 8× MICref, 24 h): 7.20E-10; Frequency of resistance (FoR) [10, 17]: ≤ 10^−9; LoD Range ([11]; 4× MICref, 24 h): < 2.26E-09; FoR Range ([11]; 4× MICref, 48 h): 1.50E-09; LoD Range ([11]; 4× MICref, 48 h): < 2.26E-09; LoD Range ([11]; 8× MICref, 24 h): < 2.26E-09; FoR Range ([11]; 8× MICref, 48 h): 3.75E-10; LoD Range ([11]; 8× MICref, 48 h): < 2.26E-09; Frequency of resistance (FoR) [11, 17]: ≤ 10^−9; MIC fold change increase ([12]; LolC E198K mutant): E198K (64×); MIC fold change increase ([12]; LolE L60P mutant): L60P (16×); MIC fold change increase ([12]; LolE M261R mutant): M261R (>64×); IC50 [13]: > 200 µM; cytotoxicity IC50 [13]: > 78.74 µg/mL; genotoxicity [14]: No toxicity was observed; mitotoxicity [15]: No toxicity was observed; protein binding [16]: 50.6%

Source: paper PMC10777851, “SMT-738: a novel small-molecule inhibitor of bacterial lipoprotein transport targeting Enterobacteriaceae” (Antimicrobial Agents and Chemotherapy, 2023)
